Legend:
[1] = system: Myzus persicae (green peach aphid); experiment: Example B1: Activity against Myzus persicae, mixed population, feeding/residual contact activity, preventive (sunflower leaf discs); type: in vivo; settings: foliar, 144 h, sprayed sunflower leaf discs, 6 days incubation
Description: (§1) Activity Against Myzus persicae (Green Peach Aphid)
(§2) (Mixed Population, Feeding/Residual Contact Activity, Preventive)
Sunflower leaf discs are placed on agar in a 24-well microtiter plate and sprayed with test solutions. After drying, the leaf discs are infested with an aphid population of mixed ages. After an incubation period of 6 days, samples are checked for mortality and special effects (e.g. phytotoxicity).

[2] = system: Myzus persicae (green peach aphid); experiment: Example B2: Activity against Myzus persicae, mixed population, systemic/feeding activity, curative (pea seedlings); type: in vivo; settings: 144 h, roots of infested pea seedlings in test solution, 6 days, systemic
Text: as §1
(Mixed Population, Systemic/Feeding Activity, Curative)
Roots of pea seedlings, infested with an aphid population of mixed ages, are placed directly in the test solutions. 6 days after introduction, samples are checked for mortality and special effects on the plant.

[3] = system: Myzus persicae (green peach aphid); experiment: Example B5: Activity against Myzus persicae, mixed population, feeding/residual contact activity (infested cabbage plants, spray chamber); type: in vivo; settings: 144 h, infested cabbage plants sprayed, 6 days after treatment
Description: as §1
(§3) (Mixed Population, Feeding/Residual Contact Activity, Plant Damage Evaluation)
(§4) Cabbage plants infested with a mixed population of Myzus persicae are treated with diluted test solutions of the compounds in a spray chamber. 6 days after treatment, samples are checked for mortality and for plant damage (phytotoxicity), visual assessment being made using a 0-100% rating scale (100%=total damage to plant; 0%=no damage to plant). In this test, compounds listed in the tables above show good activity against Myzus persicae and acceptable plant compatibility. For example compounds P1.1, P1.2, P1.3, P1.4, P1.6, P1.7, P1.8, P1.9, P1.10, P1.11 and P1.12 show an activity of greater or equal to 80% against Myzus persicae and damage to cabbage plants less or equal to 10% at a concentration of 200 ppm.

cabbage plants = settings: in vivo, 6 days, 200 ppm
Description: as §1, §3, §4

[4] = system: Thrips tabaci (onion thrips); experiment: Example B3: Activity against Thrips tabaci, mixed population, feeding/residual contact activity, preventive (sunflower leaf discs); type: in vivo; settings: foliar, 144 h, sprayed sunflower leaf discs, 6 days incubation
Description: Activity Against Thrips tabaci (Onion Thrips)
as §2
Sunflower leaf discs are placed on agar in a 24-well microtiter plate and sprayed with test solutions. After drying, the leaf discs are infested with a thrips population of mixed ages. After an incubation period of 6 days, samples are checked for mortality and special effects (e.g. phytotoxicity).

[5] = system: Tetranychus urticae (two-spotted spider mite); experiment: whole plant or invertebrate; type: in vivo; settings: foliar, 192 h, read-out: activity (egg, larval and adult mortality) against Tetranychus urticae
Text: Activity Against Tetranychus urticae (Two-Spotted Spider Mite)
as §2
Bean leaf discs on agar in 24-well microtiter plates are sprayed with test solutions. After drying, the leaf discs are infested with mite populations of mixed ages. 8 days later, discs are checked for egg mortality, larval mortality, and adult mortality.

melting point | SMILES | mortality at 200 ppm [3] | damage to cabbage plants (phytotoxicity), 0-100% rating scale (cabbage plants) | other results
 | COCON1C(=O)C(Cl)(c2cc(C)ccc2C)C(=O)C12CCN(OC)CC2 (centres unmarked) [Compound P1.1, 3-Chloro-3-(2,5-dimethyl-phenyl)-8-methoxy-1-methoxymethoxy-1,8-diaza-spiro[4.5]decane-2,4-dione] | ≥ 80% | ≤ 10% | mortality at 400 ppm [1]: > 80%; mortality at 400 ppm [2]: > 80%
 | COCCON1C(=O)C(Cl)(c2c(C)cc(C)cc2C)C(=O)C12CCN(OC)CC2 (centres unmarked) [Compound P1.2] | ≥ 80% | ≤ 10% | mortality at 400 ppm [1]: > 80%; mortality at 400 ppm [2]: > 80%
 | CCON1C(=O)C(Cl)(c2c(C)cc(C)cc2C)C(=O)C12CCN(OC)CC2 (centres unmarked) [Compound P1.3] | ≥ 80% | ≤ 10% | mortality at 400 ppm [1]: > 80%; mortality at 400 ppm [2]: > 80%; mortality at 400 ppm [4]: > 80%
 | CON1CCC2(CC1)C(=O)C(Cl)(c1c(C)cc(C)cc1C)C(=O)N2OCC1CCCC1 (centres unmarked) [Compound P1.4] | ≥ 80% | ≤ 10% | 
 | CON1CCC2(CC1)C(=O)C(Cl)(c1c(C)cc(C)cc1C)C(=O)N2OC1CCCCC1 (centres unmarked) [Compound P1.6] | ≥ 80% | ≤ 10% | 
 | COCCON1C(=O)C(Cl)(c2cc(C)c(C)cc2Cl)C(=O)C12CCN(OC)CC2 (centres unmarked) [Compound P1.7, 3-Chloro-3-(2-chloro-4,5-dimethyl-phenyl)-8-methoxy-1-(2-methoxy-ethoxy)-1,8-diaza-spiro[4.5]decane-2,4-dione] | ≥ 80% | ≤ 10% | mortality at 400 ppm [1]: > 80%; mortality at 400 ppm [2]: > 80%
 | CON1CCC2(CC1)C(=O)C(c1c(C)ccc(Cl)c1C)([N+](=O)[O-])C(=O)N2OC (centres unmarked) [Compound P1.8, 3-(3-Chloro-2,6-dimethyl-phenyl)-1,8-dimethoxy-3-nitro-1,8-diaza-spiro[4.5]decane-2,4-dione] | ≥ 80% | ≤ 10% | 
 | CON1CCC2(CC1)C(=O)C(Cl)(c1c(C)cc(C)cc1C)C(=O)N2OCC1CCOC1 (centres unmarked) [Compound P1.9] | ≥ 80% | ≤ 10% | mortality at 400 ppm [1]: > 80%; mortality at 400 ppm [2]: > 80%
 | CON1CCC2(CC1)C(=O)C(Cl)(c1c(C)cc(C)cc1C)C(=O)N2OCC1CCOCC1 (centres unmarked) [Compound P1.10] | ≥ 80% | ≤ 10% | mortality at 400 ppm [1]: > 80%; mortality at 400 ppm [2]: > 80%
 | CON1CCC2(CC1)C(=O)C(Cl)(c1c(C)cc(C)cc1C)C(=O)N2OC1CCOC1 (centres unmarked) [Compound P1.11] | ≥ 80% | ≤ 10% | mortality at 400 ppm [2]: > 80%
 | CON1CCC2(CC1)C(=O)C(Cl)(c1cc(Br)c(C)cc1C)C(=O)N2OC (centres unmarked) [Compound P1.12] | ≥ 80% | ≤ 10% | 
 | COCCON1C(=O)C(Cl)(c2cc(-c3ccc(Cl)cc3)c(F)cc2C)C(=O)C12CCN(OC)CC2 (centres unmarked) [Compound P1.13] |  |  | mortality at 400 ppm [5]: > 80%
128 °C (dec.) | COCON1C(=O)C(c2c(C)cc(-c3ccc(Cl)cc3)cc2C)=C(O)C12CCN(OC)CC2 [Compound P2.15, 3-(4′-Chloro-3,5-dimethyl-biphenyl-4-yl)-4-hydroxy-8-methoxy-1-methoxymethoxy-1,8-diaza-spiro[4.5]dec-3-en-2-one] |  |  | 
135 to 137 °C | CON1CCC2(CC1)C(O)=C(c1c(C)cc(C)cc1C)C(=O)N2OCCOC1CCCCO1 (centres unmarked) [Compound P2.22] |  |  | 
155 to 158 °C | COCON1C(=O)C(c2c(F)ccc(C)c2Cl)=C(O)C12CCN(OC)CC2 [Compound P2.60] |  |  | 
63 to 64 °C | COCCON1C(=O)C(c2cc(Br)c(C)cc2C)=C(O)C12CCN(OC)CC2 [Compound P2.73] |  |  | 
86 to 87 °C | CON1CCC2(CC1)C(O)=C(c1cc(Br)c(C)cc1C)C(=O)N2OC [Compound P2.75] |  |  | 
71 to 74 °C | COCCON1C(=O)C(c2cc(Br)c(F)cc2C)=C(O)C12CCN(OC)CC2 [Compound P2.87] |  |  | 
64 to 67 °C | COCON1C(=O)C(c2cc(Br)c(F)cc2C)=C(O)C12CCN(OC)CC2 [Compound P2.89] |  |  | 
169 to 172 °C | CON1CCC2(CC1)C(O)=C(c1c(C)cc(C)cc1C)C(=O)N2OCC1CCCCC1 [Compound P2.96] |  |  | 
161 to 164 °C | COCCON1C(=O)C(c2c(C)cc(Cl)cc2C)=C(O)C12CCN(OC)CC2 [Compound P2.101] |  |  | 
88 to 92 °C | CON1CCC2(CC1)C(O)=C(c1c(C)cc(Cl)cc1C)C(=O)N2OC [Compound P2.102] |  |  | 
228 to 231 °C | CON1CCC2(CC1)C(O)=C(c1c(C)cc(Cl)cc1C)C(=O)N2O [Compound P2.103, 3-(4-Chloro-2,6-dimethyl-phenyl)-1,4-dihydroxy-8-methoxy-1,8-diaza-spiro[4.5]dec-3-en-2-one] |  |  | 
176 to 178 °C | COCON1C(=O)C(c2c(C)cc(Cl)cc2C)=C(O)C12CCN(OC)CC2 [Compound P2.104] |  |  | 
137 to 139 °C | CON1CCC2(CC1)C(O)=C(c1c(C)cc(Cl)cc1C)C(=O)N2OC1CCCO1 (centres unmarked) [Compound P2.105] |  |  | 
